From PMC5608031 (Hormone molecular biology and clinical investigation, 2017)

Molecular target: human cytosolic sulfotransferase 1C4 (hSULT1C4) (Homo sapiens, UniProt O75897)
Experiment: biochemical
Type: binding

Sequence of human cytosolic sulfotransferase 1C4 (hSULT1C4) (O75897 whole entry): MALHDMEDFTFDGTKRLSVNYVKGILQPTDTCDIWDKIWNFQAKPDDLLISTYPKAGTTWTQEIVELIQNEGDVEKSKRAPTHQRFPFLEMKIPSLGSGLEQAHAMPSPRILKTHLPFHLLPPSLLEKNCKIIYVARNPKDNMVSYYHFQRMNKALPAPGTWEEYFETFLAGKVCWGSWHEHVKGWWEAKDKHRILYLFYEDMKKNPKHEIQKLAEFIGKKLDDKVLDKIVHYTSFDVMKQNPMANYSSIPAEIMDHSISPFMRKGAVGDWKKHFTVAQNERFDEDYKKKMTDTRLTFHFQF

Kd: 2800 ± 200 nM
SMILES: Nc1ncnc2c1ncn2[C@@H]1O[C@H](COP(=O)(O)O)[C@@H](OP(=O)(O)O)[C@H]1O [PAP]
